Entries after “also recorded” stand apart in the source; their conditions may differ. Read-outs that look alike come from different tables or passages of the source. One block for each compound: values may come before it.
Assays:
hGSTP1-1 [1] = target: T1, hGSTP1-1 (Homo sapiens, UniProt P09211); experiment: hGSTP1-1 enzyme activity/inhibition assay (CDNB and GSH substrates, 340 nm); format: biochemical; set-up: key to Enzyme Inhibition (%) (symbol): *: Coumarin derivative 5e did not exhibit significant inhibition; conditions: for Enzyme Inhibition (%) / IC50 / inhibition at 10 µM: mean ± SE, triplicate; for IC50: concentration-response inhibition, read-out: IC50 towards hGSTP1-1; for inhibition at 10 µM: pH 6.5, 10 μM compound
T1 construct: made in house; host or cells: E. coli
T1 sequence (P09211 whole entry): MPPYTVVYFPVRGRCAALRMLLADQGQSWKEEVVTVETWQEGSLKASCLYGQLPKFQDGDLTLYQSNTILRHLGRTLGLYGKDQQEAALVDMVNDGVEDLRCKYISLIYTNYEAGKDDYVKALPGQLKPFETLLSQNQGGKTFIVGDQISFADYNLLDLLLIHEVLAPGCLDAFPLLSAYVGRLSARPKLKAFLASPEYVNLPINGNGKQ
Protocol: Determination of hGSTP1-1 activity was carried out in potassium phosphate buffer (100 mM, pH 6.5, 1 mL total volume), at 25°C using as substrates CDNB and GSH. The reaction was monitoring at 340 nm for 120 s, as described previously. For inhibition analysis, coumarin derivatives were dissolved in DMSO (100 μΜ) and added to the assay mixture at 10 μΜ final concentration. The mixture was incubated at 25°C for 1 min, prior adding the enzyme sample. The IC50 values were determined from a graph of the remaining GST activity (%) against inhibitor concentration. GraphPad Prism 9.3.1 (GraphPad Prism Software, Inc.) was used for determination of IC50 values. Kinetic inhibition analysis was performed as previously described with minor modifications. Initial velocities using CDNB as a variable substrate (typically 14–1000 μM) were determined in the presence of constant concentration of GSH (2.5 mM) in the absence and presence of the coumarin derivative 5g (0–50 μM). Initial velocities using GSH as a variable substrate (typically 37.5–3750 μΜ) were determined in the presence of 1 mM CDNB in the absence and presence of the coumarin derivative 5g (0–50 μM). Enzyme assays were performed in triplicates and initial velocities were corrected for spontaneous reaction rates.

[2] = MTT cytotoxicity assay, MCF-7; format: cell-based; conditions: human, MCF-7 cells, mean ± SE, triplicate, read-out: CC50 against MCF-7
Protocol: (§1) The MTT colorimetric assay was used to evaluate the in vitro cytotoxicity of 5a, 5f and 5g coumarin derivatives against PC3, DU-145 and MCF-7 cancer cell lines. Cancer cells were inoculated into a 96-well plate (initially at a density of 8 x 10^3 cells/well in 100 μL of culture medium) and were cultivated for 24 h, at 37°C in a CO2 incubator (5%). Different concentrations of 5a, 5f and 5g derivatives (1.5 μΜ to 200 μΜ), were added to cultures and incubated for 48 h. […] The culture medium was then replaced with 100 μL of MTT solution (1 mg/mL) and after 2 h incubation, the solution was aspirated and the produced formazan crystals were dissolved in isopropanol (100 μL). The absorbance was measured at 540 nm. Dose–cell viability graphs were created using GraphPad Prism 9.3.1 and the CC50 values were determined.

[3] = MTT cytotoxicity assay, DU-145; format: cell-based; conditions: human, DU-145 cells, mean ± SE, triplicate, read-out: CC50 against DU-145
Protocol: as §1

[4] = MTT cytotoxicity assay, PC3; format: cell-based; conditions: human, PC3 cells, mean ± SE, triplicate, read-out: CC50 against PC3
Protocol: as §1

hGSTP1-1 [5] = target: T1, hGSTP1-1; set-up: method as in doi:10.5505/tjb.2012.30301; conditions: cited from earlier work
HepG2 cells = tested on: HepG2 cells; set-up: method as in PMID 29944015; conditions: read-out: IC50 towards HepG2 cells; cited from earlier work
[6] = 10 μM compound, 25°C, pH 6.5, 10 µM

Enzyme Inhibition (%) (hGSTP1-1 [1]; [6]): 84.6 ± 0.1%
IC50 (hGSTP1-1 [1]): 16.3 µM
inhibition at 10 µM (hGSTP1-1 [1]; 25°C, pH 6.5): > 85%
SMILES: O=C(C=Cc1ccccc1)c1ccc(NS(=O)(=O)c2ccc3oc(=O)ccc3c2)cc1 [Compound 5a, N-(4-cinnamoylphenyl)-2-oxo-2H-chromene-6-sulfonamide]
CC50 at 48 h [2]: 46.8 ± 5.1 µM
CC50 at 48 h [3]: 71.4 ± 5.4 µM
CC50 at 48 h [4]: 25.3 ± 2.2 µM

inhibition at 10 µM (hGSTP1-1 [1]; 25°C, pH 6.5): 62.8 ± 0.1%
SMILES: Cc1ccc(C=CC(=O)c2ccc(NS(=O)(=O)c3ccc4oc(=O)ccc4c3)cc2)cc1 [Compound 5b, 2-oxo-N-(4-(3-(p-tolyl)acryloyl)phenyl)-2H-chromene-6-sulfonamide]

inhibition at 10 µM (hGSTP1-1 [1]; 25°C, pH 6.5): 67%
SMILES: COc1ccc(C=CC(=O)c2ccc(NS(=O)(=O)c3ccc4oc(=O)ccc4c3)cc2)cc1 [Compound 5c, N-(4-(3-(4-methoxyphenyl)acryloyl)phenyl)-2-oxo-2H-chromene-6-sulfonamide]

inhibition at 10 µM (hGSTP1-1 [1]; 25°C, pH 6.5): 59.3 ± 0.1%
SMILES: COc1ccc(C=CC(=O)c2ccc(NS(=O)(=O)c3ccc4oc(=O)ccc4c3)cc2)c(OC)c1 [Compound 5d, N-(4-(3-(2,4-dimethoxyphenyl)acryloyl)phenyl)-2-oxo-2H-chromene-6-sulfonamide]

Enzyme Inhibition (%) (symbol) (hGSTP1-1 [1]; 10 μM compound, 25°C, pH 6.5): *
Enzyme Inhibition (%) (hGSTP1-1 [1]; 10 μM compound, 25°C, pH 6.5): no activity
SMILES: COc1cc(C=CC(=O)c2ccc(NS(=O)(=O)c3ccc4oc(=O)ccc4c3)cc2)cc(OC)c1OC [Compound 5e, 2-oxo-N-(4-(3-(3,4,5-trimethoxyphenyl)acryloyl)phenyl)-2H-chromene-6-sulfonamide]

Enzyme Inhibition (%) (hGSTP1-1 [1]; [6]): 86.9 ± 0.0%
IC50 (hGSTP1-1 [1]): 12.7 ± 0.7 µM
inhibition at 10 µM (hGSTP1-1 [1]; 25°C, pH 6.5): > 85%
SMILES: O=C(C=Cc1ccc(F)cc1)c1ccc(NS(=O)(=O)c2ccc3oc(=O)ccc3c2)cc1 [Compound 5f, N-(4-(3-(4-fluorophenyl)acryloyl)phenyl)-2-oxo-2H-chromene-6-sulfonamide]
CC50 at 48 h [2]: 24.7 ± 1.5 µM
CC50 at 48 h [3]: 47.3 ± 2.7 µM
CC50 at 48 h [4]: 14.7 ± 0.9 µM

Enzyme Inhibition (%) (hGSTP1-1 [1]; [6]): 87.5 ± 0.0%
inhibition constant Ki΄ (hGSTP1-1–CDNB complex) (hGSTP1-1 [1]; CDNB as variable substrate): 19.25 ± 1.20 μΜ
Ki (hGSTP1-1 [1]; CDNB as variable substrate, read-out: inhibition constant Ki (free hGSTP1-1)): 4.69 ± 0.11 µM
inhibition constant Ki΄ (hGSTP1-1 [1]; GSH as variable substrate): 25.39 ± 0.60 μΜ
Ki (hGSTP1-1 [1]; GSH as variable substrate, read-out: inhibition constant Ki): 3.82 ± 0.16 µM
IC50 (hGSTP1-1 [1]): 12.2 ± 0.5 µM
inhibition at 10 µM (hGSTP1-1 [1]; 25°C, pH 6.5): > 85%
SMILES: O=C(C=Cc1ccc(Cl)cc1)c1ccc(NS(=O)(=O)c2ccc3oc(=O)ccc3c2)cc1 [Compound 5g, N-(4-(3-(4-chlorophenyl)acryloyl)phenyl)-2-oxo-2H-chromene-6-sulfonamide]
type of inhibition (hGSTP1-1 [1]; kinetic inhibition analysis, Lineweaver-Burk): mixed-type inhibitor; also recorded: non-competitive, purely mixed-type inhibitor
CC50 at 48 h [2]: 17.4 ± 2.9 µM
CC50 at 48 h [3]: 36.6 ± 2.7 µM
CC50 at 48 h [4]: 11.9 ± 2.5 µM

inhibition at 10 µM (hGSTP1-1 [1]; 25°C, pH 6.5): 71.1 ± 0.1%
SMILES: O=C(C=Cc1ccc(Br)cc1)c1ccc(NS(=O)(=O)c2ccc3oc(=O)ccc3c2)cc1 [Compound 5h, N-(4-(3-(4-bromophenyl)acryloyl)phenyl)-2-oxo-2H-chromene-6-sulfonamide]

inhibition at 10 µM (hGSTP1-1 [1]; 25°C, pH 6.5): 45.4 ± 0.1%
SMILES: O=C(C=Cc1ccc([N+](=O)[O-])cc1)c1ccc(NS(=O)(=O)c2ccc3oc(=O)ccc3c2)cc1 [Compound 5i, N-(4-(3-(4-nitrophenyl)acryloyl)phenyl)-2-oxo-2H-chromene-6-sulfonamide]

SMILES: O=[N+]([O-])c1ccc(S(=O)(=O)Nc2ccc3c(c2)CC(Cc2ccc(Cl)cc2)=C3)cc1 [compound III]
IC50 (hGSTP1-1 [5]): 10.2 µM

SMILES: C/C(=N\Nc1nc(-c2ccccc2)cs1)c1ccc(NS(=O)(=O)c2ccc3oc(=O)ccc3c2)cc1 [compound II]
IC50 (HepG2 cells): 3.48 ± 0.28 µM
